Measured values reported in patent US20100240718A1, “NOVEL HETEROARYL-SUBSTITUTED ACETONE DERIVATIVE, SUITABLE FOR INHIBITING PHOSPHOLIPASE A2” (WESTFALISCHE WILHELMS UNIVERSITÄT MÜNSTER, priority 2007, published 2010).

Key:
[1] = target: T1, cytosolic phospholipase A2 (Homo sapiens, UniProt P47712); experiment: Inhibition of cytosolic phospholipase A2 isolated from human thrombocytes (arachidonic acid release from SAPC, HPLC-UV); format: biochemical; settings: for inhibition at 0.1 µM: read-out: inhibition of the activity of cytosolic phospholipase A2 compared to the control value
T1 construct: cytosolic phospholipase A2 obtained from human thrombocytes; from tissue; host or cells: human thrombocytes (platelets)
T1 sequence (P47712 1-749): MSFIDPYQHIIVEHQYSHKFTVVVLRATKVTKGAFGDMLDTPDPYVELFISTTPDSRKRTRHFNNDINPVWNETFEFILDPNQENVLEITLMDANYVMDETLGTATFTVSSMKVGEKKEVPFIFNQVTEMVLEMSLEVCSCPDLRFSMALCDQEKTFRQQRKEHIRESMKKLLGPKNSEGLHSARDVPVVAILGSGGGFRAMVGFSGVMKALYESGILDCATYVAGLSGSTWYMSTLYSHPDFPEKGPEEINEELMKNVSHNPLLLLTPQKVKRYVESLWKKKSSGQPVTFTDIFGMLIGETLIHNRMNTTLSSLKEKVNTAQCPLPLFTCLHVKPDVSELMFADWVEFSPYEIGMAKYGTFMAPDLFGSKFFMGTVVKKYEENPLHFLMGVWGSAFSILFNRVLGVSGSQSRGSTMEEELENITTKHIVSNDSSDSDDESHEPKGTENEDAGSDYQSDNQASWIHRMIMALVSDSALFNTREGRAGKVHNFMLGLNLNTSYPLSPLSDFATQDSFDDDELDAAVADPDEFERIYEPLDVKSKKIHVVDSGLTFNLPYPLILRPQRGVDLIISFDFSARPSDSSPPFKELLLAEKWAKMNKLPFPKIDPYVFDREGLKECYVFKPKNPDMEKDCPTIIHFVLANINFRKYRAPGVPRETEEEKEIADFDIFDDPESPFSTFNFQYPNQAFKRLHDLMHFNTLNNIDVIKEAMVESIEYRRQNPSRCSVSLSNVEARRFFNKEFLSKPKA
Experimental: The effectiveness of the inventive compounds is determinable by referring to the inhibition of the cytosolic phospholipase A2. For this purpose, cytosolic phospholipase A2 that had been isolated from human thrombocytes was used.
The IC50 value of the compounds for the inhibition of cytosolic phospholipase A2 corresponds to the concentration of the compounds that is necessary to reduce the activity of the enzyme by 50%.
The IC50 values were calculated from the values of cytosolic phospholipase A2 inhibition obtained from different concentrations with the help of the Probit model (see Hartke, Mutschler, DAB 9 Kommentar Band 1 S. 733-734, Wissenschaftliche Verlagsgesellschaft Stuttgart 1978).
The effectiveness of the inventive compounds was determined based on the inhibition of cytosolic phospholipase A2. The determination was accomplished, if not described otherwise hereinafter, as was described in Schmitt, M.; Lehr, M., “HPLC assay with UV spectrometric detection for the evaluation of inhibitors of cytosolic phospholipase A2” J. Pharm. Biomed. Anal. 2004, 35, 135-142.
Cytosolic phospholipase A2 that had been isolated from human thrombocytes was used as the enzyme source.
To produce a solution of covesicles from the substrate 1-stearoyl-2-arachidonoyl-sn-glycero-3-phosphocholine (SAPC) (Sigma) and 1,2-dioleoyl-sn-glycerol (DOG) (Sigma), corresponding amounts of the chloroform solution from SAPC (10 mg/ml) and DOG (5 mg/ml) were mixed and then the chloroform was steamed away in a stream of nitrogen. The residue was mixed with enough Tris buffer ([…], 1 mM dithiothreitol, 150 mM NaCl, 1 mM CaCl2, ph 8 at 20° C.) that a concentration for SAPC of 0.26 mM and a concentration for DOG of 0.13 mM were present. The mixture was homogenized for 10 minutes in an ultrasonic bath at 35° C. for the purpose of forming covesicles.
2 μl of the solution of the respective compound in DMSO (made from a 5 mM stock solution in DMSO) or, in the case of the control value, 2 μl of DMSO, were each mixed with 78 μl of the substrate mixture in Eppendorf tubes.
After 10 minutes of preincubation in a water bath at 37° C., 20 μl of the solution of cytosolic phospholipase A2 obtained from human thrombocytes were added to each of the […] and this mixture was incubated for another 60 minutes at 37° C. The incubation preparations contained 0.20 mM SAPC and 0.10 mM DOG per 100 μl. After that, the enzyme reaction was stopped by adding 400 μl of a solution of acetronitrile/methanol/0.1 M aqueous EDTA-solution in ratios 16:15:1 (v/v/v), whereby this solution contained 3 μg/ml nordihydroguaiaretic acid (NDGA) (Sigma) as antioxidant and 1.55 μg/ml 4-undecyloxybenzoic acid as internal standard. Subsequently, the samples were placed in ice for 10 to 15 minutes and then stored at −20° C. until solid phase extraction.
The octadecyl solid phase extraction columns with a bed volume of 200 mg and a capacity of 3 ml (Baker) were initially washed with 6 ml methanol and then with 6 ml water. The samples were diluted with 2 ml 0.005 M aqueous NaOH and then introduced to the solid phase columns. […] The eluate was mixed with 600 μl water. 100 μl of this solution was injected into the HPLC apparatus (Waters, Waters 717plus Autosampler, Waters 515 pump, and Waters 2487 UV detector). Data analysis was accomplished using the software program Millennium. For the column, a Nucleosil 100-3 C18 column (125×3 mm) with a Nucleosil 100-3 C18 pre-column (20×3 mm) (CS-Chromatographie-Service, Langerwehe) was used. The flow rate was 0.4 ml/min; the detection wavelength was 200 nm. A mixture of acetonitrile/water/phosphoric acid (85%) in ratios 770:230:1 (v/v/v) was used for the flow medium. The chromatogram run time was 30 minutes. Before the next injection, the column was always equilibrated for 15 minutes.

[2] = test system: contact dermatitis induced by benzalkonium chloride; experiment: Anti-inflammatory properties in vivo, contact dermatitis induced by benzalkonium chloride (ear swelling); settings: topical, 10 μl of a 1% solution in acetone (0.1 mg/ear), BALB/c mice, measured 1 to 72 hours
Experimental: The determination of the anti-inflammatory properties in vivo in the model of contact dermatitis induced by benzalkonium chloride was accomplished, if not stated otherwise hereinafter, according to the method published by E. Hyun et al., British Journal of Pharmacology, 2004, 143, S. 618-625.
BALB/c mice (Harlan Winkelmann GmbH, Borchen) were used as laboratory animals. A contact dermatitis was induced by introducing 10 μl per ear of a 5% benzalkonium chloride solution (Sigma) in olive oil/acetone (1:5) to the dorsal side of both ears for each of 8 lab animals per experimental group. This led to a swelling of the ears.
After 1 hour, 3 hours, 5 hours, 7 hours, 24 hours, 48 hours, and 72 hours, the ear thicknesses were measured using a digital caliper (Roth, Karlsruhe).

[3] = Determining water solubility in phosphate buffered saline (pH 7.4), HPLC; format: physicochemical; settings: phosphate buffered saline (PBS buffer), aqueous buffer, thermodynamic from solid; PBS buffer pH 7.4; range or bound stated jointly for the listed compounds
Experimental: The water solubility of the compounds was determined by administering aqueous phosphate buffer (pH 7.4) to each respective compound, and the dissolved amount was determined after shaking and centrifugation, as is described in example 12.
The determination of the water solubility of the compound was accomplished, if not hereinafter stated otherwise, with reference to the method published by Kim et al., J. Med. Chem. 2005, 48, 3621-3629.
The mixture was placed in an ultrasonic bath (Sonorex TK52, Bandelin) for 10 minutes and then shaken lightly in a shaking water bath (GFL 1083). Subsequently, the mixture was centrifuged for 10 minutes at 4000×g and room temperature. About 1 ml clear solution was taken from the supernatant. 200 μl of the clear solution were mixed with 250 μl acetonitrile (VWR) and 50 μl 0.1 M phosphoric acid. From this solution, a volume of between 5 μl and 100 μl was injected into an HPLC system (Waters, Waters 717plus Autos ampler, Waters 515 pump, and Waters 2487 UV detector)
For reference solution 1, 2 μl of a 5 mM solution of the respective compound in dimethyl sulfoxide (DMSO) were mixed with 198 μl PBS buffer, 250 μl acetonitrile, and 50 μl 0.1 M phosphoric acid. For reference solution 2, 2 μl of a 5 mM solution of the respective compound in DMSO were mixed with 398 μl PBS buffer, 500 μl acetonitrile, and 100 μl 0.1 M phosphoric acid.
C18 Aqua®-columns from the company Phenomenex (Aqua®, RP18, 75×4.6 mm, 3 μm) were used as the stationary phase.
were determined under corresponding conditions.

Structure (SMILES)	inhibition at 0.1 µM [1] [%]	increase in ear thickness compared to the negative control [2]	solubility [3] [µg/mL]	IC50 [1] [nM]
CCCCCCCCc1ccc(OCC(=O)Cn2cc(C(=O)CCCC(=O)O)c3cc(C(=O)O)ccc32)cc1 [formula (2), 3-(4-carboxybutanoyl)-1-[3-(4-octylphenoxy)-2-oxopropyl]indole-5-carboxylic acid]	30 to 97	–	–	–
CCCCCCCCc1ccc(OCC(=O)Cn2cc(C(=O)CCCCC(=O)O)c3cc(C(=O)O)ccc32)cc1 [formula (3), 3-(5-carboxypentanoyl)-1-[3-(4-octylphenoxy)-2-oxopropyl]indole-5-carboxylic acid]	–	significantly decreased increase in ear thickness	–	–
O=C(O)CCC(=O)c1cn(CC(=O)COc2ccc(Oc3ccc(C(F)(F)F)cc3)cc2)c2ccc(C(=O)O)cc12 [formula (4), 3-(3-carboxypropanoyl)-1-{2-oxo-3-[4-(4-trifluormethylphenoxy)phenoxy]propyl}indole-5-carboxylic acid]	30 to 97	–	190 to 410	190
COC(=O)CCC(=O)c1cn(CC(=O)COc2ccc(Oc3ccc(C(F)(F)F)cc3)cc2)c2ccc(C(=O)O)cc12 [formula (5), 3-(3-methoxycarbonylpropanoyl)-1-{2-oxo-3-[4-(4-trifluormethylphenoxy)phenoxy]propyl}indole-5-carboxylic acid]	30 to 97	–	15 to 35	22
CCCCCCCCc1ccc(OCC(=O)Cn2cc(C(=O)C(F)(F)F)c3cc(C(=O)O)ccc32)cc1 [formula (6), 1-[3-(4-octylphenoxy)-2-oxopropyl]-3-(2,2,2-trifluoracetyl)indole-5-carboxylic acid]	30 to 97	–	–	–
CCCCCCCCc1ccc(OCC(=O)Cn2cc(C(C)=O)c3cc(C(=O)O)ccc32)cc1 [formula (10), reference compound]	–	–	< 1	–
CCCCCCCCc1ccc(OCC(=O)Cn2cc(C(=O)OC)c3cc(C(=O)O)ccc32)cc1 [formula (11), reference compound]	–	–	< 1	–
